Entries after “also recorded” stand apart in the source; their conditions may differ. Structures can show the parent of a compound that is named as a salt.

In one data set the test system is male, WT mice. The data set is described as follows: Conditioned place preference (brief and extended). The settings on record: 10 mg·kg^−1; four conditioning sessions each for drug and vehicle.
Another data set relates to wildtype mice. The data set is described as follows: Seizure assay (modified racine scale). The conditions noted are these: 10 mg·kg^−1.
A further data set relates to WT mice. As to the kind of experiment: Locomotor evaluation.
A further data set relates to δOP KO mice. The data set is described as follows: Two-bottle choice alcohol paradigm in δOP KO mice. The data set is classed as in vivo, mouse. The settings on record: male δOP KO mice.
For the next data set, the target named is T1, HA-mouse μOP (Mus musculus, UniProt P42866).
T1 construct: HA (N); expressed in transfected cells; host or cells: HEK cells, transient transfection together with pGloSensor22F
T1 sequence (P42866 whole entry): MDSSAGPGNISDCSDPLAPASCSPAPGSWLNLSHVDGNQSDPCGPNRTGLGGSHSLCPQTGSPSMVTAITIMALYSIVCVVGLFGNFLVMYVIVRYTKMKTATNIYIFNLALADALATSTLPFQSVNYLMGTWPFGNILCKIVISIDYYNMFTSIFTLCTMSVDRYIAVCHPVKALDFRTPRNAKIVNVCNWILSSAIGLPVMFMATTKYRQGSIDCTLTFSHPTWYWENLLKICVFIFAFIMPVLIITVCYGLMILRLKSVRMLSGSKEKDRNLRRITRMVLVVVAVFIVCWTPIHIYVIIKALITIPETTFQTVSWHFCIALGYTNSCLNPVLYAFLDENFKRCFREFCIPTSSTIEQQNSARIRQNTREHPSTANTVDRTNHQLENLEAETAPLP
The data set is described as follows: GloSensor cAMP inhibition assay in transfected HEK cells. The data set is classed as cell-based. The conditions noted are these: for cAMP α: efficacy normalized to positive control DAMGO; for IC50 / cAMP pIC50: inhibition of forskolin-induced cAMP.

The test system of the next data set is male mice. The data set is described as follows: Tail flick thermal nociception assay. The format is in vivo, mouse.
The next data set addresses T2, FLAG-mouse κOP (Mus musculus, UniProt P33534).
T2 construct: FLAG (N); expressed in transfected cells; host or cells: HEK cells, transient transfection together with pGloSensor22F
The format is cell-based. The conditions noted are these: for IC50: read-out: cAMP IC50.

Data set [1] deals with T3, δOP (Homo sapiens, UniProt P41143). The format is binding. On the set-up: membranes isolated. The conditions noted are these: for Binding pKi / Ki: [3H]DPDPE, CHO membranes; for Ki: read-out: Binding Ki.
T3 sequence (P41143 whole entry): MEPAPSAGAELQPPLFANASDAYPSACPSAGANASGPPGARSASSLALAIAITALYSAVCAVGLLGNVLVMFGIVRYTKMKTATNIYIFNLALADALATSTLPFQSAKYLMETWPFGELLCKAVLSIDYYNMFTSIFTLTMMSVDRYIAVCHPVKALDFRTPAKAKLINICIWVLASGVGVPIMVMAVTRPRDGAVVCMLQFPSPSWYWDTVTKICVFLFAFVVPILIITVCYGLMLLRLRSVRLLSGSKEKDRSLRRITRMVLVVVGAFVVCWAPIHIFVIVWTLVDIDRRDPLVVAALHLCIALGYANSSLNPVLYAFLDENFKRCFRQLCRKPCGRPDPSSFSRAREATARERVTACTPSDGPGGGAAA
Data set [2] deals with C57Bl/6 wild-type mice. The data set is described as follows: Two-bottle choice alcohol paradigm (drinking in the dark, 10% ethanol vs water). The data set is classed as in vivo, mouse.
The next data set concerns the target T4, FLAG-mouse δOP (Mus musculus, UniProt P32300).
T4 construct: FLAG (N); expressed in transfected cells; host or cells: HEK cells (HEK-293), transient transfection together with pGloSensor22F
As to the kind of experiment: GloSensor cAMP inhibition assay in transfected HEK cells. The format is cell-based. The settings on record: for cAMP α: efficacy normalized to positive control Leu-Enk; for IC50 / cAMP pIC50: inhibition of forskolin-induced cAMP.

For the next data set, the target named is κOP (Homo sapiens, UniProt P41145). The data set is classed as binding. On the set-up: membranes isolated. The conditions noted are these: for Ki: read-out: Binding Ki.
Sequence of κOP (P41145 whole entry): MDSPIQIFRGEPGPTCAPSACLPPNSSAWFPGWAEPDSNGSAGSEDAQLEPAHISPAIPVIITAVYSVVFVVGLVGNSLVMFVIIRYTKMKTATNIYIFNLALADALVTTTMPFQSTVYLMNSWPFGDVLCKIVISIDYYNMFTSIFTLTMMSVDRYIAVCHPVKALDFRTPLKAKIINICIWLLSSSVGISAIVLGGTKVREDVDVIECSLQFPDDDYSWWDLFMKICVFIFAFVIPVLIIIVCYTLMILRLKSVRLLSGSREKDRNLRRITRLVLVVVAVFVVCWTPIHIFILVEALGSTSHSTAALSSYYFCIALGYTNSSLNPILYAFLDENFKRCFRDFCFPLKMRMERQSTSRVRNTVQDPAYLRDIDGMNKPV
A further data set addresses μOP (Homo sapiens, UniProt P35372). The data set is classed as binding. On the set-up: membranes isolated. The settings on record: for Binding pKi / Ki: [3H]DAMGO, CHO membranes; for Ki: read-out: Binding Ki.
Data set [3] has as its system C57Bl/6 wild-type mice. The settings on record: cited from earlier work; for alcohol consumption, in words (previous reports): dose not stated.
Data set [4] concerns the target T3, δOP. The format is cell-based. The conditions noted are these: normalized to positive control Leu-Enk.

T4 sequence (P32300 whole entry): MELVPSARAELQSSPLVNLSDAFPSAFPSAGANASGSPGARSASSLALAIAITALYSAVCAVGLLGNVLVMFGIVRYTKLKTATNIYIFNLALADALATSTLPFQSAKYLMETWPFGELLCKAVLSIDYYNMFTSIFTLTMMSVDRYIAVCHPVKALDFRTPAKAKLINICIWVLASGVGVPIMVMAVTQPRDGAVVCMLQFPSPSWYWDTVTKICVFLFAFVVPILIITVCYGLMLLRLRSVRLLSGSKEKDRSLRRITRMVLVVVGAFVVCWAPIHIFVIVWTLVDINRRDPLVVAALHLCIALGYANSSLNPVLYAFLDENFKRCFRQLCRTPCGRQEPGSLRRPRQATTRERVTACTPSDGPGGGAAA
T2 sequence (P33534 whole entry): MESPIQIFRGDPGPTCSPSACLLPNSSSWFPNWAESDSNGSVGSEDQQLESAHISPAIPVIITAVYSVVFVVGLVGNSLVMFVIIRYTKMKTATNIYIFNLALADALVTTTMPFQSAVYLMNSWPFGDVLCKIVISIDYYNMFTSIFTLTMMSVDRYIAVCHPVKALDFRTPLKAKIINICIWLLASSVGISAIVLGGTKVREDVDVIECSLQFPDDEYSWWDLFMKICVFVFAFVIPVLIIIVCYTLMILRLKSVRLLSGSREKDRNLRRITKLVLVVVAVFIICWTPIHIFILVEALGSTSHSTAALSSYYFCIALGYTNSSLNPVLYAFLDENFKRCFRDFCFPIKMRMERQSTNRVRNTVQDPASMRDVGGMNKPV
Sequence of μOP (P35372 whole entry): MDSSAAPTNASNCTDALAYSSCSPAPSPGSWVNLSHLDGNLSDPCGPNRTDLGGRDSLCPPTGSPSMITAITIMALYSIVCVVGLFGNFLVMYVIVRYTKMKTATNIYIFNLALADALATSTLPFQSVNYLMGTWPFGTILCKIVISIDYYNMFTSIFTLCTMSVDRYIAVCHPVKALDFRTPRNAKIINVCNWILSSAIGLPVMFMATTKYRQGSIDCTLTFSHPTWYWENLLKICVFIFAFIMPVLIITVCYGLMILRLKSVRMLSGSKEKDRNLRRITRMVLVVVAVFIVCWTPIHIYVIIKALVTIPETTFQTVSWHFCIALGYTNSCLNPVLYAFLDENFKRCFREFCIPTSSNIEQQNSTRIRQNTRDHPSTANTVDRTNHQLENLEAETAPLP

As to `CC[C@H]1CN2CC[C@@]3(O)C(=Nc4cccc(OC)c43)[C@@H]2C[C@@H]1/C(=C\OC)C(=O)OC` [7OH SPG, 7-hydroxyspeciogynine], the “conditioned place preference, extended protocol” value in the data set with male, WT mice is reported as “did not develop conditioned place preference”. The seizure activity entry in the data set on wildtype mice is “did not significantly alter ambulation (paired, two-tailed t-test, t=0.7552, df=6, p=0.4787) (FIG. 5B) or induce seizures”. The “ambulation / locomotor activity” value in the data set on WT mice (10 mg·kg^−1) is “did not significantly alter ambulation”. The “ethanol consumption in δOP KO mice, in words” value in the data set with δOP KO mice (3 mg·kg^−1) was “did not significantly decrease ethanol consumption; also recorded: alcohol consumption was not significantly altered”. Also, the “ethanol consumption in δOP KO mice, in words” value in the data set with δOP KO mice (10 mg·kg^−1) was “did not significantly decrease ethanol consumption; also recorded: alcohol consumption was not significantly altered”. Besides, on HA-mouse μOP, the “cAMP inhibition at the μOP, in words” value is “lowest potency at the μOP; also recorded: reduced μOP potency”; the “cAMP α” value was determined as 66 ± 6; half-maximal inhibition (IC50) was put at 2400 nM; the “cAMP pIC50” value was 6.2±0.3. Besides, the “block of morphine analgesia (antagonist mode)” value with male mice (10 mg·kg^−1, then morphine 6 mg·kg^−1 s.c. 10 minutes later) is recorded as “did not produce antinociception (paired, two-tailed t-test, t=0.6193, df=9, p=0.5511) or block morphine analgesia”. In addition, the “antinociception (agonist mode)” value in the data set on male mice (10 mg·kg^−1, 30 minutes after drug) is “did not produce antinociception”. Further, on FLAG-mouse κOP, the “cAMP pIC50” value is 5.1 ± 0.3 (3), the “cAMP α” value is listed as 80 ± 20 and the IC50 came out at 7710 nM. At δOP [1], the “δOP binding, in words” value was “improved binding relative to speciogynine”; the “Binding pKi” value is listed as 6.3±0.1; the Ki worked out at 460 nM. Further, the “ethanol consumption, in words” value in the data set with C57Bl/6 wild-type mice [2] (3 mg·kg^−1 s.c., WT male and female mice) is listed as “reduced alcohol intake; also recorded: efficacious activity; also recorded: dose-dependently decreased ethanol consumption; also recorded: significantly decreased the percent ethanol consumption”. Moreover, in the data set on C57Bl/6 wild-type mice [2] (10 mg·kg^−1, WT mice), the “average decrease of ethanol consumption” value stood at 1.2 ± 0.2 g/kg and the “percent reduction of ethanol consumption” value is 40±7%. In the data set with C57Bl/6 wild-type mice [2] (10 mg·kg^−1 s.c., WT mice), the “ethanol consumption, in words” value is “reduced alcohol intake; also recorded: dose-dependently decreased ethanol consumption; also recorded: significantly decreased the percent ethanol consumption”. On FLAG-mouse δOP, the “cAMP inhibition at the δOP, in words” value was “strongest activator at the δOP”; the “difference in potency at the δOP between 7-hydroxyspeciogynine and 7-hydroxypaynantheine” value is 10 fold; the “cAMP α” value is 76 ± 6; the midpoint of inhibition, the IC50, lay at 2270 nM. Moreover, the “cAMP pIC50” value on FLAG-mouse δOP is 5.6 ± 0.1 (6). Besides, on κOP, the “Binding pKi” value is recorded as 5.8 ± 0.2 (3) and the Ki is 1630 nM. Also, the “μOP affinity, in words” value on μOP is on record as “strongest μOP affinity”.

Take `C=C[C@H]1CN2CC[C@@]3(O)C(=Nc4cccc(OC)c43)[C@@H]2C[C@@H]1/C(=C\OC)C(=O)OC` [70H PAYN, 7-Hydroxypaynantheine]: the “ethanol consumption in δOP KO mice, in words” value in the data set on δOP KO mice (30 mg·kg^−1) is “did not significantly decrease ethanol consumption; also recorded: alcohol consumption was not significantly altered”. Also, at HA-mouse μOP, the “cAMP inhibition at the μOP, in words” value is recorded as “lowest potency at the μOP; also recorded: reduced μOP potency”; the “cAMP α” value is 80 ± 40; inhibition was half-maximal at 21800 nM (IC50); the “cAMP pIC50” value is given as 4.7±0.5. In addition, the “cAMP inhibition at the κOP, in words” value on FLAG-mouse κOP was “not detected at the tested dose range”. Besides, at δOP [1], the “δOP binding, in words” value is “a magnitude weaker in binding the δOP than 7-hydroxyspeciogynine”; the “Binding pKi” value turned out to be 4.9±0.2; the Ki is 12700 nM. For the same compound, the “ethanol consumption, in words” value in the data set with C57Bl/6 wild-type mice [2] (10 mg·kg^−1 s.c., WT mice, listed as 7-hydroxypaynanthiene) is reported as “not 10 mg·kg^−1”. Besides, in the data set on C57Bl/6 wild-type mice [2] (30 mg·kg^−1 (7-hydroxypaynantheine s.c., speciociliatine i.p.), WT male mice), the “ethanol consumption, in words” value is given as “significantly reduce alcohol intake; also recorded: significantly decreased ethanol consumption”. In the data set on C57Bl/6 wild-type mice [2] (30 mg·kg^−1 (7-hydroxypaynantheine s.c., speciociliatine i.p.), WT male mice, listed as 7-hydroxypaynanthiene), the “ethanol consumption, in words” value is “efficacious activity; also recorded: decreased the percent ethanol consumption”. In the data set with C57Bl/6 wild-type mice [2] (30 mg·kg^−1, WT mice), the “average decrease of ethanol consumption” value worked out at 1.1 ± 0.3 g/kg and the “percent reduction of ethanol consumption” value stood at 40±11%. In addition, on FLAG-mouse δOP, the “cAMP α” value was determined as 70 ± 20, the IC50 was 5740 nM and the “cAMP pIC50” value is on record as 5.2 ± 0.3 (5). Further, at κOP, the “Binding pKi” value is given as 5.1 ± 0.1 (3) and the Ki was determined as 7460 nM. Moreover, at μOP, the “Binding pKi” value is 5.2 ± 0.1 (3) and the Ki came out at 6150 nM.

For `COc1ccsc1CNCC[C@@]1(c2ccccn2)CCOC2(CCCC2)C1` [Oliceridine], the “alcohol consumption, in words (previous reports)” value in the data set on C57Bl/6 wild-type mice [3] is “not decrease alcohol consumption”.

On to `C=CC1CN2CCC3(Nc4cccc(OC)c4C3=O)C2CC1C(=COC)C(=O)OC` (centres unmarked) [PAYN PI, Paynantheine Pseudoindoxyl], for which, on HA-mouse μOP, the “cAMP inhibition at the μOP, in words” value is on record as “lowest potency at the μOP”; the “cAMP α” value is reported as 60 ± 6; the IC50 is 4820 nM; the “cAMP pIC50” value is reported as 5.3 ± 0.2 (4). Besides, at δOP [1], the “Binding pKi” value was 6.0 ± 0.1 (3) and the Ki was determined as 920 nM. On κOP, the “Binding pKi” value is given as 5.9 ± 0.1 (4) and the Ki was determined as 1310 nM. Moreover, at μOP, the “Binding pKi” value is recorded as 6.2 ± 0.1 (3) and the Ki is 680 nM.

As to `CC[C@H]1CN2CC[C@]3(Nc4cccc(OC)c4C3=O)[C@@H]2C[C@@H]1/C(=C\OC)C(=O)OC` [SPG PI, Speciogynine Pseudoindoxyl], the “cAMP α” value on HA-mouse μOP worked out at 58 ± 4; on FLAG-mouse κOP, 80 ± 30; at FLAG-mouse δOP it was 80 ± 20. The half-inhibitory concentration (IC50) on HA-mouse μOP was 230 nM; at FLAG-mouse κOP, 20600 nM; against FLAG-mouse δOP, 8530 nM. Further, the “cAMP pIC50” value on HA-mouse μOP was 6.6 ± 0.2 (5); at FLAG-mouse κOP, 4.7 ± 0.5 (4); on FLAG-mouse δOP, 5.1 ± 0.3 (4). The “Binding pKi” value on δOP [1] is 6.0 ± 0.1 (3); at κOP, 6.1 ± 0.1 (3); at μOP, 7.1 ± 0.1 (3). The Ki on δOP [1] stood at 940 nM; on κOP it was 750 nM; on μOP, 77 nM.

Regarding `CC[C@H]1CN2CCc3c([nH]c4cccc(OC)c34)[C@@H]2C[C@@H]1/C(=C\OC)C(=O)OC` [SPG, speciogynine, reference compound], at δOP [1], the “Binding pKi” value is recorded as 5.1 ± 0.1 (6) and the Ki came out at 5340 nM. In the data set on C57Bl/6 wild-type mice [2] (systemic (i.p.) injection, modified 2-bottle choice, male C57BL/6 mice, FIG. 1), the “alcohol intake, in words” value is on record as “reduce alcohol intake”. Moreover, on κOP, the “Binding pKi” value was 5.4 ± 0.1 (5) and the Ki came out at 3000 nM.

`CN1CC[C@]2(c3cccc(O)c3)Cc3nc4ccccc4cc3C[C@H]2C1` [TAN-67]: the “alcohol consumption, in words (previous reports)” value with C57Bl/6 wild-type mice [3] is reported as “efficaciously reduces alcohol use”.

Take `C=CCN1CC[C@]23c4c5ccc(O)c4O[C@H]2C(=O)CC[C@@]3(O)[C@H]1C5` [naloxone, naloxone hydrochloride]: the “block of 7-hydroxymitragynine-induced hyperlocomotion” value in the data set on WT mice (dose of naloxone considered to be μOP-selective) is reported as “completely blocked”.

On to `Oc1ccc2c3c1O[C@H]1c4[nH]c5ccccc5c4C[C@@]4(O)[C@@H](C2)N(CC2CC2)CC[C@]314` [naltrindole], for which, in the data set on C57Bl/6 wild-type mice [3] (10 mg·kg^−1), the “alcohol intake, in words (previous reports)” value was “not decrease alcohol intake”.

Turning to Leu-enkephalin [reference compound], the “β-arrestin 2 α” value on δOP [4] was determined as 100. For the same compound, the “cAMP α” value on FLAG-mouse δOP stood at 100.

For orientation: IC50 means the midpoint of a concentration-inhibition curve. The term Ki denotes a measure of affinity in units of concentration, obtained from inhibition or displacement.

The values are drawn from US20230250098A1 (priority 2021, published 2023).
